Data as given in patent US9783509B2, “Six-membered C-N-linked aryl sulfide derivatives and aryl sulfoxide derivatives as pest conrol agents” (BAYER CROPSCIENCE AKTIENGESELLSCHAFT, priority 2013, dated 2017).
Read-outs that look alike come from different tables or passages of the source.

What was measured:
[1] = test system: southern root-knot nematode (Meloidogyne incognita); experiment: Meloidogyne incognita test (sand, lettuce, acetone solvent, 14 days); format: in vivo; conditions: application rate 20 ppm, after 14 days
Experimental: Meloidogyne incognita Test
Solvent: 125.0 parts by weight of acetone
To produce an appropriate active ingredient formulation, 1 part by weight of active ingredient is mixed with the stated amount of solvent and the concentrate is diluted with water to the desired concentration.
Vessels are filled with sand, active ingredient solution, an egg/larvae suspension of the southern root-knot nematode (Meloidogyne incognita) and lettuce seeds. The lettuce seeds germinate and the plants develop. The galls develop on the roots
After 14 days, the nematicidal efficacy in % is determined by the formation of galls. 100% means that no galls were found; 0% means that the number of galls on the treated plants corresponds to the untreated control.

[2] = log P by reversed-phase HPLC analogously to OECD Guideline 117; format: physicochemical; conditions: for chromatographic logP: reversed-phase C18 HPLC column
Experimental: The log P values were determined analogously to OECD Guideline 117 (EC Directive 92/69/EEC) by HPLC (high-performance liquid chromatography) using reversed-phase columns (C 18), by the following methods:
[a] LC-MS determination in the acidic range is effected at pH 2.7 with 0.1% aqueous formic acid and acetonitrile (containing 0.1% formic acid) as eluents with a linear gradient from 10% acetonitrile to 95% acetonitrile; or with 0.025% aqueous trifluoroacetic acid and acetonitrile (containing 0.025% trifluoroacetic acid) as eluents with a linear gradient from 50% acetonitrile to 80% acetonitrile.
[b] LC-MS determination in the neutral range is effected at pH 7.8 with 0.001 molar aqueous ammonium hydrogencarbonate solution and acetonitrile as eluents; linear gradient from 10% acetonitrile to 95% acetonitrile.
Calibration is effected with solutions of a homologous series of unbranched alkan-2-ones (having 3 to 16 carbon atoms) with known log P values (log P values determined on the basis of the retention times by linear interpolation between two successive alkanones).

[3] = test system: greenhouse red spider mite (Tetranychus urticae); experiment: Tetranychus urticae spray test, OP-resistant (bean leaf discs); format: in vivo; conditions: after 6 days; for pest or weed control at 500 g/ha: Tetranychus urticae, foliar, 144 h, read-out: efficacy (spider mites killed)
Experimental: Tetranychus urticae—Spray Test, OP-Resistant
Solvent: 78.0 parts by weight of acetone • • 1.5 parts by weight of dimethylformamide
Emulsifier: alkylaryl polyglycol ether
To produce an appropriate active ingredient formulation, 1 part by weight of active ingredient is dissolved using the specified parts by weight of solvent and made up with water containing an emulsifier concentration of 1000 ppm until the desired concentration is attained. To produce further test concentrations, the preparation is diluted with emulsifier-containing water.
Discs of bean leaves (Phaseolus vulgaris) infested by all stages of the greenhouse red spider mite (Tetranychus urticae) are sprayed with an active ingredient formulation of the desired concentration.
After 6 days, the efficacy in % is determined. 100% means that all the spider mites have been killed; 0% means that none of the spider mites have been killed.

[4] = [a] acidic range, pH 2.7, formic acid (or trifluoroacetic acid)/acetonitrile
[5] = [b] neutral range, pH 7.8, ammonium hydrogencarbonate/acetonitrile
[6] = pH 2.7, table column, [a] acidic range, pH 2.7, formic acid (or trifluoroacetic acid)/acetonitrile, read-out: LogP[a]
[7] = pH 7.8, table column, [b] neutral range, pH 7.8, ammonium hydrogencarbonate/acetonitrile, read-out: LogP[b]
[8] = pH 2.7, running text, [a] acidic range, pH 2.7, read-out: log P[a]
[9] = pH 7.8, running text, [b] neutral range, pH 7.8, read-out: log P[b]

Compound | LogP[a] [2, 4] | LogP[b] [2, 5] | efficacy (spider mites killed) ([3]; application rate 500 g/ha) | also measured
O=c1cnn(-c2cc([S+]([O-])CC(F)(F)F)c(Cl)cc2Cl)c(=O)[nH]1 (racemic) [compound 15] | 2.02 | 1.1 |  | nematicidal efficacy (formation of galls) [1]: 90%
Cc1cc(F)c(-n2ncc(=O)n(C(C)C)c2=O)cc1[S+]([O-])CC(F)(F)F (racemic) [compound 30] | 2.64 | 2.58 | 100% | nematicidal efficacy (formation of galls) [1]: 100%
Cc1cc(C)c([S+]([O-])CC(F)(F)F)cc1-n1ncc(=O)n(CC2CC2)c1=O (racemic) [compound 37] | 2.77 | 2.73 | 100% | 
Cc1cc(C)c([S+]([O-])CC(F)(F)F)cc1-n1ncc(=O)n(C(C)C)c1=O (racemic) [compound 38] | 2.69 | 2.67 | 100% | 
Cc1cc(C)c([S+]([O-])CC(F)(F)F)cc1-n1ncc(=O)n(Cc2ccccc2)c1=O (racemic) [compound 52] | 3.06 | 3.00 |  | efficacy (spider mites killed) ([3]; application rate 100 g/ha): 90%
Cc1cc(F)c(-n2ccc(=O)n(CC#N)c2=O)cc1[S+]([O-])CC(F)(F)F (racemic) [compound 61] | 1.72 | 1.73 | 90% | nematicidal efficacy (formation of galls) [1]: 100%
Cc1cc(C)c(-n2ncc(=O)n(C)c2=O)cc1SCC(F)(F)F [Ex. No. 5] | 3.08 |  | 100% | 
Cc1cc(C)c(-n2ncc(=O)n(CC(F)(F)F)c2=O)cc1SCC(F)(F)F [Ex. No. 7] | 3.74 |  | 90% | 
Cc1cc(F)c(-n2c(C)c(C#N)c(=O)[nH]c2=O)cc1[S+]([O-])CC(F)(F)F (stereo not drawn) [Ex. No. 16, 1-{2-Fluoro-4-methyl-5-[(2,2,2-trifluoroethyl)sulphinyl]phenyl}-6-methyl-2,4-dioxo-1,2,3,4-tetrahydropyrimidine-5-carbonitrile] |  |  |  | pest or weed control at 500 g/ha ([3]; application rate 500 g/ha): 90%; chromatographic logP [2, 6]: 1.58; chromatographic logP [2, 7]: 0.88
Cc1cc(F)c(-n2c(C)c(C#N)c(=O)[nH]c2=O)cc1SCC(F)(F)F [Ex. No. 17, 1-{2-Fluoro-4-methyl-5-[(2,2,2-trifluoroethyl)sulphanyl]phenyl}-6-methyl-2,4-dioxo-1,2,3,4-tetrahydropyrimidine-5-carbonitrile] |  |  |  | pest or weed control at 500 g/ha ([3]; application rate 500 g/ha): 90%; chromatographic logP [2, 8]: 2.43; chromatographic logP [2, 6]: 2.43
CCc1cc(CC)c([S+]([O-])CC(F)(F)F)cc1-n1c(C)c(C#N)c(=O)[nH]c1=O (stereo not drawn) [Ex. No. 18, 1-{2,4-Diethyl-5-[(2,2,2-trifluoroethyl)sulphinyl]phenyl}-6-methyl-2,4-dioxo-1,2,3,4-tetrahydropyrimidine-5-carbonitrile] |  |  |  | pest or weed control at 500 g/ha ([3]; application rate 500 g/ha): 90%; chromatographic logP [2, 8]: 2.15; chromatographic logP [2, 6]: 2.15; chromatographic logP [2, 9]: 1.55; chromatographic logP [2, 7]: 1.55
Cc1cc(F)c(-n2ccc(=O)[nH]c2=O)cc1SCC(F)(F)F [Ex. No. 55, 1-{2-Fluoro-4-methyl-5-[(2,2,2-trifluoroethyl)sulphanyl]phenyl}pyrimidine-2,4(1H,3H)-dione] |  |  |  | pest or weed control at 500 g/ha ([3]; application rate 500 g/ha): 100%; chromatographic logP [2, 8]: 2.13; chromatographic logP [2, 6]: 2.06; chromatographic logP [2, 9]: 2.06; chromatographic logP [2, 7]: 2.13
Cc1ccc(-n2ccc(=O)n(C)c2=O)cc1[S+]([O-])CC(F)(F)F (stereo not drawn) [Ex. No. 57, 3-Methyl-1-{4-methyl-3-[(2,2,2-trifluoroethyl)sulphinyl]phenyl}pyrimidine-2,4(1H,3H)-dione] |  |  |  | pest or weed control at 20 ppm ([1]; Meloidogyne incognita, 336 h, read-out: nematicidal efficacy (formation of galls)): 90%; chromatographic logP [2, 8]: 1.5; chromatographic logP [2, 6]: 1.49; chromatographic logP [2, 9]: 1.49; chromatographic logP [2, 7]: 1.5
O=c1cnn(-c2cc(SCC(F)(F)F)c(Cl)cc2Cl)c(=O)[nH]1 [compound 8] | 2.72 | 1.4 |  | nematicidal efficacy (formation of galls) [1]: 90%
Cc1ccc(-n2ncc(=O)n(C)c2=O)cc1SCC(F)(F)F [compound 23] | 2.9 | 2.83 | 100% | 
Cc1cc(F)c(-n2ncc(=O)n(C(C)C)c2=O)cc1SCC(F)(F)F [compound 26] | 3.73 | 3.67 | 100% | 

Compound | LogP[a] [2, 4] | LogP[b] [2, 5] | efficacy (spider mites killed) ([3]; application rate 500 g/ha) | also measured
CCn1c(=O)cnn(-c2cc(SCC(F)(F)F)c(C)cc2C)c1=O [compound 33] | 3.45 | 3.38 | 100% | 
Cc1cc(C)c(-n2ncc(=O)n(CC3CC3)c2=O)cc1SCC(F)(F)F [compound 34] | 3.94 | 3.87 | 100% | 
Cc1cc(C)c(-n2ncc(=O)n(C(C)C)c2=O)cc1SCC(F)(F)F [compound 36] | 3.88 | 3.81 | 100% | 
Cc1cc(C)c(-n2ncc(=O)n(CC#N)c2=O)cc1SCC(F)(F)F [compound 40] | 3.1 | 3.05 | 100% | 
Cc1cc(C)c(-n2ncc(=O)n(CC(C)C)c2=O)cc1SCC(F)(F)F [compound 41] | 4.18 | 4.1 | 90% | 
Cc1cc(F)c(-n2ncc(=O)n(Cc3ccccc3)c2=O)cc1SCC(F)(F)F [compound 42] | 4.04 | 3.93 | 100% | 
CCCn1c(=O)ccn(-c2cc([S+]([O-])CC(F)(F)F)c(C)cc2F)c1=O (stereo not drawn) [compound 66] | 2.17 | 2.25 | 90% | 
Cc1cc(F)c(-n2ccc(=O)n(CC(C)C)c2=O)cc1[S+]([O-])CC(F)(F)F (stereo not drawn) [compound 69] | 2.48 | 2.55 |  | nematicidal efficacy (formation of galls) [1]: 100%
Cc1cc(F)c(-n2ccc(=O)n(CC(C)C)c2=O)cc1SCC(F)(F)F [compound 81] | 3.56 | 3.62 | 90% | 
Cc1ccc(-n2ccc(=O)[nH]c2=O)cc1SCC(F)(F)F [compound 88] | 1.99 | 2.05 | 90% | 
Cc1cc(C)c(-n2ccc(=O)[nH]c2=O)cc1SCC(F)(F)F [compound 89] | 2.18 | 2.25 | 100% | 
Cc1ccc(-n2ccc(=O)[nH]c2=O)cc1[S+]([O-])CC(F)(F)F (stereo not drawn) [compound 91] | 1.20 | 1.19 | 100% | 
Cc1cc(C)c([S+]([O-])CC(F)(F)F)cc1-n1ccc(=O)n(C)c1=O (stereo not drawn) [compound 93] | 1.68 | 1.7 | 100% | 
Cc1cc(C)c(-n2ccc(=O)n(CC(F)(F)F)c2=O)cc1SCC(F)(F)F [compound 94] | 3.39 | 3.49 | 100% | 
CCn1c(=O)ccn(-c2cc(SCC(F)(F)F)c(C)cc2C)c1=O [compound 96] | 2.98 | 3.07 | 100% | 
Cc1cc(C)c([S+]([O-])CC(F)(F)F)cc1-n1ccc(=O)[nH]c1=O (stereo not drawn) [compound 99] | 1.35 | 1.38 | 100% | 
